# Measured values reported in patent US5399543A, “3-[4-(phenylmethoxy)phenyl]-1-substituted-6-haloalkyl-uracil herbicides” (FMC Corporation, priority 1993, dated 1995).
# Tests used:
# Chickweed [1] = assay: Postemergence herbicidal activity, chickweed; type: in vivo; conditions: Stellaria media, post-emergence, 0.3 kg/ha, after 17-21 days, read-out: Postemergence herbicidal activity (% control), Chickweed
# Experimental: (§1) The 3-[4-(phenylmethoxy)phenyl]-1-substituted-6-haloalkyluracil herbicides of this invention were tested for pre- and postemergence herbicidal activity using a variety of crops and weeds. The test plants included soybean (Glycine max var. Williams), field corn (Zea mays var. Agway 425X), wheat (Triticum aestivum var. Wheaton), morningglory (Ipomea lacunosa or Ipomea hederacea), velvetleaf (Abutilon theophrasti), green foxtail (Setaria viridis), Johnsongrass (Sorghum halepense), blackgrass (Aloepecurus myosuroides), common chickweed (Stellaria media), and common cocklebur (Xanthium pensylvanicum).
# (§2) For preemergence testing, two disposable fiber flats (8 cm×15 cm×25 cm) for each rate of application of each candidate herbicide were filled to an approximate depth of 6.5 cm with steam-sterilized sandy loam soil. The soil was leveled and impressed with a template to provide five evenly spaced furrows 13 cm long and 0.5 cm deep in each flat. Seeds of soybean, wheat, corn, green foxtail, and johnsongrass were planted in the furrows of the first flat, and seeds of velvetleaf, morningglory, common chickweed, cocklebur, and blackgrass were planted in the furrows of the second flat. The five-row template was employed to firmly press the seeds into place. A topping soil of equal portions of sand and sandy loam soil was placed uniformly on top of each flat to a depth of approximately 0.5 cm. Flats for postemergence testing were prepared in the same manner except that they were planted 8-12 days prior to the preemergence flats and were placed in a greenhouse and watered, thus allowing the seeds to germinate and the foliage to develop.
# (§3) In both pre- and postemergence tests, a stock solution of the candidate herbicide was prepared by dissolving 0.27 g of the compound in 20 mL of water/acetone (50/50) containing 0.5% v/v sorbitan monolaurate. For an application rate of 3000 g/ha of herbicide a 10 mL portion of the stock solution was diluted with water/acetone (50/50) to 45 mL.
# (§4) The preemergence flats were initially subjected to a light water spray. The four flats were placed two by two along a conveyor belt (i.e., the two preemergence followed by the two postemergence flats). The conveyor belt fed under a spray nozzle mounted about ten inches above the postemergent foliage. The preemergent flats were elevated on the belt so that the soil surface was at the same level below the spray nozzle as the foliage canopy of the postemergent plants. The spray of herbicidal solution was commenced and once stabilized, the flats were passed under the spray at a speed to receive a coverage equivalent of 1000 L/ha. At this coverage the application rates are those shown in the above table for the individual herbicidal solutions. The preemergence flats were watered immediately thereafter, placed in the greenhouse and watered regularly at the soil surface. The postemergence flats were immediately placed in the greenhouse and not watered until 24 hours after treatment with the test solution. Thereafter they were regularly watered at ground level. After 17-21 days the plants were examined and the phytotoxicity data were recorded.
# (§5) Herbicidal activity data at selected application rates are given for various compounds of this invention in Table 2 and Table 3. The test compounds are identified by numbers which correspond to those in Table 1.
# (§6) Phytotoxicity data were taken as percent control. Percent control was determined by a method similar to the 0 to 100 rating system disclosed in "Research Methods in Weed Science," 2nd ed., B. Truelove, Ed.; Southern Weed Science Society; Auburn University, Auburn, Ala., 1977.
# Cocklebur [2] = assay: Preemergence herbicidal activity, cocklebur; type: in vivo, Xanthium pensylvanicum; conditions: Xanthium strumarium, pre-emergence, 0.3 kg/ha, after 17-21 days, read-out: Preemergence herbicidal activity (% control), Cocklebur
# Experimental: as §1, §2, §3, §4, §5, §6
# Blackgrass [3] = assay: Postemergence herbicidal activity, blackgrass; type: in vivo, Aloepecurus myosuroides; conditions: Alopecurus myosuroides, post-emergence, 0.3 kg/ha, after 17-21 days, read-out: Postemergence herbicidal activity (% control), Blackgrass
# Experimental: as §1, §2, §3, §4, §5, §6
# Green foxtail [4] = assay: Postemergence herbicidal activity, green foxtail; type: in vivo; conditions: Setaria viridis, post-emergence, 0.3 kg/ha, after 17-21 days, read-out: Postemergence herbicidal activity (% control), Green foxtail
# Experimental: as §1, §2, §3, §4, §5, §6
# Soybean [5] = assay: Preemergence herbicidal activity, soybean; type: in vivo, Glycine max var. Williams; conditions: Glycine max, pre-emergence, 0.3 kg/ha, after 17-21 days, read-out: Preemergence herbicidal activity (% control), Soybean
# Experimental: as §1, §2, §3, §4, §5, §6
# Corn [6] = assay: Preemergence herbicidal activity, corn; type: in vivo, Zea mays var. Agway 425X; conditions: Zea mays, pre-emergence, 0.3 kg/ha, after 17-21 days, read-out: Preemergence herbicidal activity (% control), Corn
# Experimental: as §1, §2, §3, §4, §5, §6
# Wheat [7] = assay: Postemergence herbicidal activity, wheat; type: in vivo, Triticum aestivum var. Wheaton; conditions: Triticum aestivum, post-emergence, 0.3 kg/ha, after 17-21 days, read-out: Postemergence herbicidal activity (% control), Wheat
# Experimental: as §1, §2, §3, §4, §5, §6
# Johnsongrass [8] = assay: Preemergence herbicidal activity, johnsongrass; type: in vivo; conditions: Sorghum halepense, pre-emergence, 0.3 kg/ha, after 17-21 days, read-out: Preemergence herbicidal activity (% control), Johnsongrass
# Experimental: as §1, §2, §3, §4, §5, §6
# Chickweed [9] = assay: Preemergence herbicidal activity, chickweed; type: in vivo; conditions: Stellaria media, pre-emergence, 0.3 kg/ha, after 17-21 days, read-out: Preemergence herbicidal activity (% control), Chickweed
# Experimental: as §1, §2, §3, §4, §5, §6
# Morningglory [10] = assay: Preemergence herbicidal activity, morningglory; type: in vivo, Ipomea lacunosa or Ipomea hederacea; conditions: Ipomoea, pre-emergence, 0.3 kg/ha, after 17-21 days, read-out: Preemergence herbicidal activity (% control), Morningglory
# Experimental: as §1, §2, §3, §4, §5, §6
# Wheat [11] = assay: Preemergence herbicidal activity, wheat; type: in vivo, Triticum aestivum var. Wheaton; conditions: Triticum aestivum, pre-emergence, 0.3 kg/ha, after 17-21 days, read-out: Preemergence herbicidal activity (% control), Wheat
# Experimental: as §1, §2, §3, §4, §5, §6
# Velvetleaf [12] = assay: Preemergence herbicidal activity, velvetleaf; type: in vivo; conditions: Abutilon theophrasti, pre-emergence, 0.3 kg/ha, after 17-21 days, read-out: Preemergence herbicidal activity (% control), Velvetleaf
# Experimental: as §1, §2, §3, §4, §5, §6
# Soybean [13] = assay: Postemergence herbicidal activity, soybean; type: in vivo, Glycine max var. Williams; conditions: Glycine max, post-emergence, 0.3 kg/ha, after 17-21 days, read-out: Postemergence herbicidal activity (% control), Soybean
# Experimental: as §1, §2, §3, §4, §5, §6
# Cocklebur [14] = assay: Postemergence herbicidal activity, cocklebur; type: in vivo, Xanthium pensylvanicum; conditions: Xanthium strumarium, post-emergence, 0.3 kg/ha, after 17-21 days, read-out: Postemergence herbicidal activity (% control), Cocklebur
# Experimental: as §1, §2, §3, §4, §5, §6
# Velvetleaf [15] = assay: Postemergence herbicidal activity, velvetleaf; type: in vivo; conditions: Abutilon theophrasti, post-emergence, 0.3 kg/ha, after 17-21 days, read-out: Postemergence herbicidal activity (% control), Velvetleaf
# Experimental: as §1, §2, §3, §4, §5, §6
# Green foxtail [16] = assay: Preemergence herbicidal activity, green foxtail; type: in vivo; conditions: Setaria viridis, pre-emergence, 0.3 kg/ha, after 17-21 days, read-out: Preemergence herbicidal activity (% control), Green foxtail
# Experimental: as §1, §2, §3, §4, §5, §6
# Johnsongrass [17] = assay: Postemergence herbicidal activity, johnsongrass; type: in vivo; conditions: Sorghum halepense, post-emergence, 0.3 kg/ha, after 17-21 days, read-out: Postemergence herbicidal activity (% control), Johnsongrass
# Experimental: as §1, §2, §3, §4, §5, §6
# Morningglory [18] = assay: Postemergence herbicidal activity, morningglory; type: in vivo, Ipomea lacunosa or Ipomea hederacea; conditions: Ipomoea, post-emergence, 0.3 kg/ha, after 17-21 days, read-out: Postemergence herbicidal activity (% control), Morningglory
# Experimental: as §1, §2, §3, §4, §5, §6
# Blackgrass [19] = assay: Preemergence herbicidal activity, blackgrass; type: in vivo, Aloepecurus myosuroides; conditions: Alopecurus myosuroides, pre-emergence, 0.3 kg/ha, after 17-21 days, read-out: Preemergence herbicidal activity (% control), Blackgrass
# Experimental: as §1, §2, §3, §4, §5, §6
# Corn [20] = assay: Postemergence herbicidal activity, corn; type: in vivo, Zea mays var. Agway 425X; conditions: Zea mays, post-emergence, 0.3 kg/ha, after 17-21 days, read-out: Postemergence herbicidal activity (% control), Corn
# Experimental: as §1, §2, §3, §4, §5, §6
Compound,activity at 300 g/ha (Chickweed [1]),activity at 300 g/ha (Cocklebur [2]),activity at 300 g/ha (Blackgrass [3]),activity at 300 g/ha (Green foxtail [4]),activity at 300 g/ha (Soybean [5]),activity at 300 g/ha (Corn [6]),activity at 300 g/ha (Wheat [7]),activity at 300 g/ha (Johnsongrass [8]),activity at 300 g/ha (Chickweed [9]),activity at 300 g/ha (Morningglory [10]),activity at 300 g/ha (Wheat [11]),activity at 300 g/ha (Velvetleaf [12]),activity at 300 g/ha (Soybean [13]),activity at 300 g/ha (Cocklebur [14]),activity at 300 g/ha (Velvetleaf [15]),activity at 300 g/ha (Green foxtail [16]),activity at 300 g/ha (Johnsongrass [17]),activity at 300 g/ha (Morningglory [18]),activity at 300 g/ha (Blackgrass [19]),activity at 300 g/ha (Corn [20])
Cc1cc(OCc2ccccc2)ccc1-n1c(=O)cc(C(F)(F)F)n(C)c1=O [Compound 12],0%,0%,0%,50%,10%,40%,0%,60%,0%,10%,0%,60%,20%,0%,30%,80%,0%,20%,0%,0%
Cc1cc(OCc2ccc(Cl)cc2)ccc1-n1c(=O)cc(C(F)(F)F)n(C)c1=O [Compound 13],30%,0%,20%,80%,40%,30%,0%,90%,10%,60%,0%,100%,30%,90%,100%,100%,20%,100%,30%,40%
Cn1c(C(F)(F)F)cc(=O)n(-c2ccc(OCc3ccc(C(F)(F)F)cc3)cc2)c1=O [Compound 22],15%,50%,30%,90%,90%,30%,20%,70%,100%,90%,0%,100%,50%,40%,40%,100%,80%,95%,15%,20%
COc1ccccc1COc1ccc(-n2c(=O)cc(C(F)(F)F)n(C)c2=O)cc1 [Compound 40],15%,20%,10%,100%,50%,75%,20%,100%,80%,100%,20%,100%,90%,100%,100%,100%,90%,90%,30%,50%
Cn1c(C(F)(F)F)cc(=O)n(-c2ccc(OCc3ccc(Cl)c(Cl)c3)cc2)c1=O [Compound 41],85%,20%,0%,45%,40%,0%,0%,20%,95%,80%,0%,100%,85%,100%,100%,95%,35%,100%,20%,25%
Cn1c(C(F)(F)F)cc(=O)n(-c2ccc(OCc3cc(Cl)cc(Cl)c3)cc2)c1=O [Compound 43],0%,0%,0%,0%,0%,0%,0%,0%,0%,0%,0%,0%,10%,0%,0%,0%,30%,10%,0%,30%
COc1ccc(COc2ccc(-n3c(=O)cc(C(F)(F)F)n(C)c3=O)cc2)cc1 [Compound 44],20%,25%,50%,70%,40%,0%,10%,10%,20%,100%,10%,100%,40%,50%,40%,60%,50%,90%,20%,30%
